Experimental data from paper PMC9841533, “Microtubule-Stabilizing 1,2,4-Triazolo[1,5-a]pyrimidines as Candidate Therapeutics for Neurodegenerative Disease: Matched Molecular Pair Analyses and Computational Studies Reveal New Structure–Activity Insights” (Journal of Medicinal Chemistry, 2022).
Where two headings read alike, the source gives them in different places.

Legend:
[1] = tested on: acetylated α-tubulin (AcTub) levels in QBI293 cells; assay: QBI293 cell assay of MT stabilization: acetylated α-tubulin ELISA; type: cell-based
How it was run: (§1)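 AcTub and α-Tub were quantified by ELISA in whole-cell extracts normalized by BCA protein and expressed relative to vehicle. AcTub changes were also scaled to a 100 nM reference stabilizer control.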

[2] = tested on: AcTub levels in OA-treated primary mouse cortical neurons; assay: Okadaic acid (OA) assay, AcTub ELISA in primary mouse cortical neurons; type: cell-based; conditions: OA 15 nM, 8 h, compound 1 and 10 μM
Method: To further evaluate the activity of Class I alkyne derivatives and hybrid compounds, several compounds were also assessed for their ability to compensate for MT deficits in primary neuron cultures that were treated with the phosphatase inhibitor, okadaic acid (OA). As previously described,[11] treatment of rodent neurons with OA results in tau hyperphosphorylation and MT collapse that presumably results, at least in part, from tau disengagement from MTs. Co-treatment of neurons with Class I TPDs, such as 1, along with OA prevents this MT collapse, with a resulting normalization of MT structure and neuronal processes which can be observed upon visual inspection of the neurons or through an assessment of neuronal AcTub levels, while Class II TPDs are generally unable to provide meaningful compensation of MT deficits, especially when tested at higher (i.e., 10 μM) compound concentration.[11],[12]
Figure 4 ELISA determination of AcTub levels in homogenates from primary rat cortical neurons treated with either vehicle, or OA (15 nM) in the presence of vehicle or TPD 1, 8, 9 (A); and primary mouse cortical neurons treated with vehicle, or OA (15 nM) in the presence of vehicle or TPD 1, 24, 45, 46, 53, 54 (B). Error bars represent SEM, with ***, p < 0.001 relative to vehicle treatment in the absence of OA as determined by one-way ANOVA.
Compound-induced changes in acetylated-tubulin and α-tubulin in QBI293 cells or primary mouse or rat neurons were as previously described.[11],[12] For compound testing, QBI293 cells were plated at a density of 2 × 10^5 cells/well in 12-well plates. The plated cells were incubated overnight, after which the medium was aspirated and fresh medium containing vehicle (0.25–0.3% DMSO) or test compound was added. Test compounds were prepared as 4–20 mM stock solutions in 100% DMSO, and these were diluted in culture medium prior to addition to the QBI293 cells. After 4 h incubation, whole-cell extracts were prepared from the QBI293 cells as described[11] and the supernatant fraction from each sample was assessed for protein content by bicinchoninic acid (BCA) assay. The amount of acetyl-tubulin (AcTub) and α-tubulin (αTub) within the cell extract samples was quantified using specific enzyme-linked immunosorbent assays (ELISA), as previously described.[11] Acetyl-tubulin levels were determined in a similar manner in rat or mouse cortical neuron cultures in which embryonic dissociated cortical neurons were plated at 3 × 10^5 cells/well in poly-D-lysine-coated 12-well plates, essentially as previously described.[11] The neurons were allowed to grow for 10 days before they were treated for 8 h with 15 nM okadaic acid in the presence or absence of test compound prepared as described above, or vehicle (0.25% DMSO). Culture homogenates were prepared for the determination of AcTub levels by ELISA as previously described.[11]
VehicleVehicleVehicleVehicle25 (1 µM)
Figure S2. Assessment of AcTub levels in primary mouse cortical neurons treated with vehicle,
(§2) (1 picture or pasted object on this page, not shown here)

[3] = tested on: total α-tubulin (α-Tub) levels in QBI293 cells; assay: QBI293 cell assay: total α-tubulin ELISA; type: cell-based
How it was run: as §1

[4] = tested on: acetylated α-tubulin (AcTub) levels in QBI293 cells; parameters: method as in PMID 26980057, PMID 33411523; conditions: cited from earlier work; for Class (cellular phenotype): activity reported in previous studies
[5] = tested on: total α-tubulin (α-Tub) levels in QBI293 cells; parameters: method as in PMID 26980057, PMID 33411523; conditions: 4 h incubation, reported in previous studies, cited from earlier work
[6] = Resazurin cell viability assay, HeLa; type: cell-based; conditions: human, HeLa cells, three biological replicates, read-out: HeLa CC50 ± SD
Method: (§3) Cell Culture. QBI293 and HeLa cells were cultured in DMEM supplemented with 10% heat-
(§4) inactivated FBS and 1% penicillin-streptomycin. Cells were grown in T175 cell culture flasks maintained
(§5) at 37 ℃ in 5% CO2 and sub-c ultured when at 60-8 0% cell confluence.
(§6) Resazurin Cell Viability Assay. Cytotoxicity in QBI293 and HeLa cells was measured using the
(§7) resazurin cell viability assay.1 Test compounds were serially diluted in DMSO and added to 96-well
(§8) polystyrene assay plates to give final assay concentrations ranging from 100 nM to 4000 nM (1 µL; 1%
(§9) total DMSO). Fresh medium was added to the assay plate (49 µL/well). QBI293 or HeLa cells were
(§10) cells/well. Assay plates were incubated at 37 °C and 5% CO2 for 48 h, followed by addition of 20 µL 0.5
(§11) mM resazurin (Alfa Aesar, Cat. B21187) in PBS to each well. Assay plates were incubated in the dark for
as §2
(§12) 4 h at 37 °C. Fluorescence was measured at 531 nm and 595 nm excitation and emission wavelengths,
(§13) respectively, using a 2104 EnVision® multilabel plate reader. The viability of each well was normalized to
(§14) positive and negative controls in each assay plate. Dose-response curves were generated and CC50 values
(§15) calculated with GraphPad Prism, version 9.3 (San Diego, CA) using a sigmoidal four parameter logistic
(§16) curve. The means ± standard deviations from three biological replicates are shown.
(§17) (1) O'Brien, J.; Wilson, I.; Orton, T.; Pognan, F. Investigation of the Alamar Blue (resazurin) fluorescent
(§18) dye for the assessment of mammalian cell cytotoxicity. Eur. J. Biochem. 2000, 267 (17), 5421-5426.

[7] = Resazurin cell viability assay, QBI293; type: cell-based; conditions: human, QBI293 cells, three biological replicates, read-out: QBI293 CC50 ± SD
Method: as §3, §4, §5, §6, §7, §8, §9, §10, §11, §2, §12, §13, §14, §15, §16, §17, §18

[8] = 4 h, 1 uM compound, read-out: AcTub (1uM)
[9] = 4 h, 10 uM compound, read-out: AcTub (10 uM)
[10] = 4 h, 1 uM compound, read-out: AlfaTub (1uM)
[11] = 4 h, 10 uM compound, read-out: AlfaTub (10 uM)
[12] = 4 h incubation, reported in previous studies
[13] = 4 h incubation, 10 μM, reported in previous studies

SMILES	AcTub (1 uM - normalized) ([1]; 1 uM compound)	AcTub (10 uM - normalized) ([1]; 10 uM compound)	fold induction at 1 µM [1, 8]	fold induction at 10 µM [1, 9]	fold induction at 1 µM [3, 10]	fold induction at 10 µM [3, 11]	AcTub 10 μM, fold-change compared to vehicle (DMSO)-treated cells [4, 13] [fold-change]	α-Tub 1 μM, fold-change compared to vehicle (DMSO)-treated cells [5] [fold-change]	Class (cellular phenotype) [4]	α-Tub 10 μM, fold-change compared to vehicle (DMSO)-treated cells [5] [fold-change]	also measured
CC(C)[C@@H](C)Nc1c(-c2c(F)cc(C#CCCO)cc2F)c(Cl)nc2ncnn12 [Compound 45, (R)-4-(4-(5-Chloro-7-((3-methylbutan-2-yl)amino)-[1,2,4]triazolo[1,5-a]pyrimidin-6-yl)-3,5-difluorophenyl)but-3-yn-1-ol]	0.48	0.82	5.9	10.1	1	0.95	–	–	–	–	AcTub 1 μM, fold-change compared to positive control compound 5 (100 nM) (in parentheses) ([1]; 4 h incubation, 1 μM): 0.48 fold-change; fold induction at 1 µM ([1]; 4 h incubation, 1 μM, read-out: AcTub 1 μM, fold-change compared to vehicle (DMSO)-treated cells): 5.9 ± 0.32; AcTub 10 μM, fold-change compared to positive control compound 5 (100 nM) (in parentheses) ([1]; 4 h incubation, 10 μM): 0.82 fold-change; fold induction at 10 µM ([1]; 4 h incubation, 10 μM, read-out: AcTub 10 μM, fold-change compared to vehicle (DMSO)-treated cells): 10.1 ± 0.71; prevention/correction of OA-induced MT collapse (AcTub levels) [2]: can prevent the OA-induced MT collapse; fold induction at 1 µM ([3]; 4 h incubation, 1 μM, read-out: α-Tub 1 μM, fold-change compared to vehicle (DMSO)-treated cells): 1 ± 0.03; fold induction at 10 µM ([3]; 4 h incubation, 10 μM, read-out: α-Tub 10 μM, fold-change compared to vehicle (DMSO)-treated cells): 0.95 ± 0.03
CC(C)[C@@H](Nc1c(-c2c(F)cc(F)cc2F)c(Cl)nc2ncnn12)C(F)(F)F [Compound 8]	0.16	0.73	2.79	13	1.1	0.61	13.0 ± 0.54	1.10 ± 0.09	–	–	AcTub 1 μM, fold-change compared to vehicle (DMSO)-treated cells [4, 12]: 2.79 ± 0.04 fold-change
CC(C)(C)CNc1c(-c2c(F)cc(F)cc2F)c(Cl)nc2ncnn12 [Compound 11]	0.30	0.71	–	–	–	–	4.79 ± 0.74	1.03 ± 0.07	I	–	AcTub (1uM) ([1]; 1 uM compound): 2.04; AcTub (10 uM) ([1]; 10 uM compound): 4.79; AcTub 1 μM, fold-change compared to positive control compound 5 (100 nM) (in parentheses) [4, 12]: 0.30 fold-change; AcTub 1 μM, fold-change compared to vehicle (DMSO)-treated cells [4, 12]: 2.04 ± 0.11 fold-change; AlfaTub (1uM) ([3]; 1 uM compound): 1.03; AlfaTub (10 uM) ([3]; 10 uM compound): 1.06
CC[C@]1(O)C[C@@H]2CN(CCc3c([nH]c4ccccc34)[C@@](C(=O)OC)(c3cc4c(cc3OC)N(C)[C@H]3[C@@](O)(C(=O)OC)[C@H](OC(C)=O)[C@]5(CC)C=CCN6CC[C@]43[C@@H]65)C2)C1 [Vinblastine, reference compound]	–	–	–	–	–	–	–	–	–	–	CC50 at 48 h [6]: 2.11 ± 0.1 nM; CC50 at 48 h [7]: 3.23 ± 0.67 nM
CC(C)[C@H](Nc1c(-c2c(F)cc(F)cc2F)c(Cl)nc2ncnn12)C(F)(F)F [Compound 9]	0.17	0.38	3.12	6.78	1.04	1.06	–	1.04 ± 0.01	I	–	–
CC(=O)O[C@H]1C(=O)[C@@]2(C)[C@H]([C@H](OC(=O)c3ccccc3)[C@]3(O)C[C@H](OC(=O)[C@H](O)[C@@H](NC(=O)c4ccccc4)c4ccccc4)C(C)=C1C3(C)C)[C@]1(OC(C)=O)CO[C@@H]1C[C@@H]2O [Taxol, reference compound]	–	–	–	–	–	–	–	–	–	–	CC50 at 48 h [6]: 1.53 ± 0.26 nM; CC50 at 48 h [7]: 1.29 ± 0.16 nM
C[C@H](Nc1c(-c2c(F)cc(OCCCN(C)C)cc2F)c(Cl)nc2ncnn12)C1(C)N=N1 [Compound 67]	1.01	0.04	6.7	0.28	0.69	0.78	0.28 ± 0.03	0.69 ± 0.05	–	–	–
CC1(CNc2c(-c3c(F)cc(F)cc3F)c(Cl)nc3ncnn23)N=N1 [Compound 61]	0.12	0.27	1.56	3.42	1.08	1.03	–	1.08 ± 0.04	I	1.03 ± 0.04	AcTub 1 μM, fold-change compared to positive control compound 5 (100 nM) (in parentheses) [4, 12]: 0.12 fold-change
C[C@H](Nc1c(-c2c(F)cc(OCCCO)cc2F)c(Cl)nc2ncnn12)C(F)(F)F [Compound 64]	1.24	0.19	6.76	1.03	0.73	0.37	1.03 ± 0.02	–	–	0.37 ± 0.02	CC50 at 48 h [6]: 189 ± 19 nM; CC50 at 48 h [7]: 226 ± 17 nM
C[C@H](Nc1c(-c2c(F)cc(F)cc2F)c(Cl)nc2ncnn12)C1(C)N=N1 [Compound 62]	0.13	0.28	0.84	1.85	1.07	0.94	1.85 ± 0.08	–	I	0.94 ± 0.02	–
CN(C)CCCOc1cc(F)c(-c2c(Cl)nc3ncnn3c2NCC2(C)N=N2)c(F)c1 [Compound 65]	0.81	0.02	10.5	0.29	0.36	0.19	–	–	–	0.19 ± 0.02	AcTub 1 μM, fold-change compared to positive control compound 5 (100 nM) (in parentheses) [4, 12]: 0.81 fold-change; AcTub 1 μM, fold-change compared to vehicle (DMSO)-treated cells [4, 12]: 10.5 ± 0.4 fold-change; AcTub 10 μM, fold-change compared to positive control compound 5 (100 nM) (in parentheses) [4, 13]: 0.02 fold-change
